Results published in patent US20250059175A1, “Mutant Pi3k-Alpha Inhibitors And Their Use As Pharmaceuticals” (Prelude Therapeutics Incorporated, priority 2023, published 2025).

Tested on: phosphorylation of AKT on Ser473 (PI3K pathway) in T-47D (heterozygous PIK3CA H1047R) cell line
Assay: PI3K pathway activation assay (pAKT Ser473 HTRF), T-47D cells
Type: cell-based
Conditions: Homo sapiens, T47D, 2 h; T-47D (heterozygous PIK3CA H1047R) cells, two hours of treatment, pAKT Ser473 HTRF; read-out: T47D pAKT IC50
Method: The inhibitory activity of the compounds of the disclosure was evaluated by measuring phosphorylation of AKT on Ser473 as a readout of the PI3K pathway using HTRF (CisBio catalog number: 64AKSPE). These studies were conducted in the T-47D (heterozygous PIK3CA H1047R) and SKBR3 (PIK3CA WT) cell lines. Cells were maintained in a 37° C. incubator at 5% CO2 in the following media: T-47D: RPMI 1640, ATCC© Modification (Gibco, A10491-01) supplemented with 10% v/v FBS (Gibco, 26140-079), 1% penicillin streptomycin (Gibco, 15140-122), and 7.4 ug/mL insulin (MilliporeSigma, I9278); SKBR3: McCoy's 5a (Modified) Medium (Gibco, 16600-082) supplemented with 10% v/v FBS (Gibco, 26140-079). Cells were seeded in 384-well plates at a density of 4,000 cells/well. Compounds dissolved in DMSO were added using a digital dispense (D300E, Tecan) 10-point serial dilution. After two hours of treatment, cells were lysed for thirty minutes and then incubated with detection reagents per HTRF kit material and manufacturer's instructions. Fluorescence signal was measured with a multimode plate reader (Envision 2105, Perkin Elmer). Fluorescent signal was normalized to background and DMSO controls to obtain percent inhibition/activity for each compound.

SMILES	IC50
Cc1cc([C@@H](C)Nc2ccc(Cl)nc2C(=O)O)nc(N2C(=O)OC[C@@H]2Cc2cn(C)nc2F)c1 [Example 36, 6-Chloro-3-(((R)-1-(6-((S)-4-((3-fluoro-1-methyl-1H-pyrazol-4-yl)methyl)-2-oxooxazolidin-3-yl)-4-methylpyridin-2-yl)ethyl)amino)picolinic acid]	100 to 1000 nM
Cc1cc([C@@H](C)Nc2ccc(Cl)nc2C(=O)O)nc(N2C(=O)OC[C@@H]2Cc2cn(C)c3ccccc23)c1 [Example 37, 6-Chloro-3-(((R)-1-(4-methyl-6-((S)-4-((1-methyl-1H-indol-3-yl)methyl)-2-oxooxazolidin-3-yl)pyridin-2-yl)ethyl)amino)picolinic acid]	< 100 nM
Cc1cc([C@@H](C)Nc2ccc(Cl)nc2C(=O)O)nc(N2C(=O)OC[C@@H]2Cc2nn(C)c3ccccc23)c1 [Example 38, 6-Chloro-3-(((R)-1-(4-methyl-6-((S)-4-((1-methyl-1H-indazol-3-yl)methyl)-2-oxooxazolidin-3-yl)pyridin-2-yl)ethyl)amino)picolinic acid]	100 to 1000 nM
Cc1cc([C@@H](C)Nc2ccc(Cl)nc2C(=O)O)nc(N2C(=O)OC[C@@H]2Cc2cn(C)c3ncccc23)c1 [Example 39, 6-Chloro-3-(((R)-1-(4-methyl-6-((S)-4-((1-methyl-1H-pyrrolo[2,3-b]pyridin-3-yl)methyl)-2-oxooxazolidin-3-yl)pyridin-2-yl)ethyl)amino)picolinic acid]	< 100 nM

Further lines, results first:

IC50	SMILES
< 100 nM	Cc1cc([C@@H](C)Nc2ccc(Cl)nc2C(=O)O)nc(N2C(=O)OC[C@@H]2Cc2ccc3c(cnn3C)c2)c1 [Example 42, 6-Chloro-3-(((R)-1-(4-methyl-6-((S)-4-((1-methyl-1H-indazol-5-yl)methyl)-2-oxooxazolidin-3-yl)pyridin-2-yl)ethyl)amino)picolinic acid]
< 100 nM	Cc1cc([C@@H](C)Nc2ccc(Cl)nc2C(=O)O)nc(N2C(=O)OC[C@@H]2Cc2ccc3nn(C)cc3c2)c1 [Example 43, 6-Chloro-3-(((R)-1-(4-methyl-6-((S)-4-((2-methyl-2H-indazol-5-yl)methyl)-2-oxooxazolidin-3-yl)pyridin-2-yl)ethyl)amino)picolinic acid]

Same assay, conditions: T-47D (heterozygous PIK3CA H1047R) cells, two hours of treatment, pAKT Ser473 HTRF; read-out: T47D pAKT IC50

SMILES	IC50
Cc1cc([C@@H](C)Nc2ccc(Cl)nc2C(=O)O)nc(N2C(=O)OC[C@@H]2Cc2cccn3ccnc23)c1 [Example 44, 6-Chloro-3-(((R)-1-(6-((S)-4-(imidazo[1,2-α]pyridin-8-ylmethyl)-2-oxooxazolidin-3-yl)-4-methylpyridin-2-yl)ethyl)amino)picolinic acid]	100 to 1000 nM
Cc1cc([C@@H](C)Nc2ccc(Cl)nc2C(=O)O)nc(N2C(=O)OC[C@@H]2Cc2cccn3nccc23)c1 [Example 45, 6-Chloro-3-(((R)-1-(4-methyl-6-((S)-2-oxo-4-(pyrazolo[1,5-α]pyridin-4-ylmethyl)oxazolidin-3-yl)pyridin-2-yl)ethyl)amino)picolinic acid]	< 100 nM
Cc1cc([C@@H](C)Nc2ccc(Cl)nc2C(=O)O)nc(N2C(=O)OC[C@@H]2Cc2cnn3ccccc23)c1 [Example 46, 6-Chloro-3-(((R)-1-(4-methyl-6-((S)-2-oxo-4-(pyrazolo[1,5-α]pyridin-3-ylmethyl)oxazolidin-3-yl)pyridin-2-yl)ethyl)amino)picolinic acid]	< 100 nM

Continued, values first:

IC50	SMILES
< 100 nM	Cc1cc([C@@H](C)Nc2ccc(Cl)nc2C(=O)O)nc(N2C(=O)OC[C@@H]2Cc2ccn3nccc3c2)c1 [Example 40, 6-Chloro-3-(((R)-1-(4-methyl-6-((S)-2-oxo-4-(pyrazolo[1,5-α]pyridin-5-ylmethyl)oxazolidin-3-yl)pyridin-2-yl)ethyl)amino)picolinic acid]
100 to 1000 nM	Cc1cc([C@@H](C)Nc2ccc(Cl)nc2C(=O)O)nc(N2C(=O)OC[C@@H]2Cc2ccc3cncn3c2)c1 [Example 41, 6-Chloro-3-(((R)-1-(6-((S)-4-(imidazo[1,5-α]pyridin-6-ylmethyl)-2-oxooxazolidin-3-yl)-4-methylpyridin-2-yl)ethyl)amino)picolinic acid]
